Measured values from patent US20250250269A1, “HETEROCYCLIC GLP-1 AGONISTS” (Gasherbrum Bio, Inc., priority 2022, published 2025).

The compounds below were run against T1, GLP-1 Receptor (Homo sapiens, UniProt P43220) (assay: GLP-1R agonist cAMP stimulation assay (HEK293/GLP1R/CRE-LUC cells, Cisbio cAMP dynamic 2 kit)). Conditions: HEK293/CRE-Luc cells stably expressing the GLP-1 Receptor, 30 min at 37° C.
T1 construct: host or cells: HEK293/CRE-Luc (HEK293/GLP1R/CRE-LUC)
Type: cell-based
Summary of the method: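 HEK293 CRE-Luc cells stably expressing GLP-1R (1000 cells/well) treated with compounds in ½-log dilution for 30 min at 37 °C in DPBS with 0.5 mM IBMX and 0.1% BSA. cAMP quantified by HTRF (cAMP-d2/anti-cAMP cryptate, 1 h, room temperature), fluorescence read at 665 and 615 nm.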

T1 sequence (P43220 24-463, species assumed): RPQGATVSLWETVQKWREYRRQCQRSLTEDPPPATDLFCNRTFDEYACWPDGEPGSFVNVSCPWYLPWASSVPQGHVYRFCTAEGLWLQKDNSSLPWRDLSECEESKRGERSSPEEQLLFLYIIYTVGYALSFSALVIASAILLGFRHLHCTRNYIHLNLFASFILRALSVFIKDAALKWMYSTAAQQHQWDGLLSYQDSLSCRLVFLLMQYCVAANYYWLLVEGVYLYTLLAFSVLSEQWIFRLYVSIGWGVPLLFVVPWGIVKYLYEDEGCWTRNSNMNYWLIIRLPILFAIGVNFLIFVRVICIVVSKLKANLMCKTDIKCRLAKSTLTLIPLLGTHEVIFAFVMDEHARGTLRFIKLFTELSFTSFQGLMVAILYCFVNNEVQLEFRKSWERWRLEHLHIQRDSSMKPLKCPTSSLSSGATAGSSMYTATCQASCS

Row | SMILES | EC50
1 | C[C@]1(c2ccc(Cl)cc2F)Oc2cccc(C3=CCN(Cc4nc5cc(-c6nnc(C(F)(F)F)[nH]6)cnc5n4C[C@@H]4CCO4)CC3)c2O1 [Compound 45, 2-((4-((S)-2-(4-chloro-2-fluorophenyl)-2-methylbenzo[d][1,3]dioxol-4-yl)-3,6-dihydropyridin-1(2H)-yl)methyl)-3-(((S)-oxetan-2-yl)methyl)-6-(5-(trifluoromethyl)-4H-1,2,4-triazol-3-yl)-3H-imidazo[4,5-b]pyridine] | < 1 nM
2 | C[C@]1(c2ccc(Cl)cc2F)Oc2cccc(C3=CCN(Cc4nc5cc(-c6nnc(C(F)(F)F)[nH]6)nnc5n4C[C@@H]4CCO4)CC3)c2O1 [Compound 46, 6-((4-((S)-2-(4-chloro-2-fluorophenyl)-2-methylbenzo[d][1,3]dioxol-4-yl)-3,6-dihydropyridin-1(2H)-yl)methyl)-7-(((S)-oxetan-2-yl)methyl)-3-(5-(trifluoromethyl)-4H-1,2,4-triazol-3-yl)-7H-imidazo[4,5-c]pyridazine] | < 1 nM
3 | Fc1cc(Cl)ccc1COc1nc(C2CCN(Cc3nc4cc(-c5nnc(C(F)(F)F)[nH]5)nnc4n3C[C@@H]3CCO3)CC2)c(F)cc1F [Compound 50, 2-[(4-chloro-2-fluorophenyl)methoxy]-3,5-difluoro-6-{1-[(7-{[(2S)-oxetan-2-yl]methyl}-3-[5-(trifluoromethyl)-4H-1,2,4-triazol-3-yl]-7H-imidazo[4,5-c]pyridazin-6-yl)methyl]piperidin-4-yl}pyridine] | < 1 nM
4 | CC1(c2ccc(F)cc2F)Oc2cccc(C3CCN(Cc4nc5cc(-c6nnc(C(F)(F)F)[nH]6)cnc5n4C[C@@H]4CCO4)CC3)c2O1 (stereo partly drawn) [Compound 53, 4-[2-(2,4-difluorophenyl)-2-methyl-2H-1,3-benzodioxol-4-yl]-1-[(3-{[(2S)-oxetan-2-yl]methyl}-6-[5-(trifluoromethyl)-4H-1,2,4-triazol-3-yl]-3H-imidazo[4,5-b]pyridin-2-yl)methyl]piperidine] | < 1 nM
5 | CC1(c2ccc(F)cc2F)Oc2cccc(C3CCN(Cc4nc5cc(-c6nnc(C(F)(F)F)[nH]6)ncc5n4C[C@@H]4CCO4)CC3)c2O1 (stereo partly drawn) [Compound 54, 4-[2-(2,4-difluorophenyl)-2-methyl-2H-1,3-benzodioxol-4-yl]-1-[(3-{[(2S)-oxetan-2-yl]methyl}-6-[5-(trifluoromethyl)-4H-1,2,4-triazol-3-yl]-3H-imidazo[4,5-c]pyridin-2-yl)methyl]piperidine] | < 1 nM
6 | Cc1ccc(C2(C)Oc3cccc(C4CCN(Cc5nc6cc(-c7nnc(C(F)(F)F)[nH]7)ncc6n5C[C@@H]5CCO5)CC4)c3O2)cn1 (stereo partly drawn) [Compound 55, 2-methyl-5-[2-methyl-4-{1-[(3-{[(2S)-oxetan-2-yl]methyl}-6-[5-(trifluoromethyl)-4H-1,2,4-triazol-3-yl]-3H-imidazo[4,5-c]pyridin-2-yl)methyl]piperidin-4-yl}-2H-1,3-benzodioxol-2-yl]pyridine] | < 1 nM
7 | Cc1ccc(C2(C)Oc3cccc(C4CCN(Cc5nc6cc(-c7nnc(C(F)(F)F)[nH]7)cnc6n5C[C@@H]5CCO5)CC4)c3O2)cn1 (stereo partly drawn) [Compound 56, 2-methyl-5-[2-methyl-4-{1-[(3-{[(2S)-oxetan-2-yl]methyl}-6-[5-(trifluoromethyl)-4H-1,2,4-triazol-3-yl]-3H-imidazo[4,5-b]pyridin-2-yl)methyl]piperidin-4-yl}-2H-1,3-benzodioxol-2-yl]pyridine] | < 1 nM

The next lines start with the values.

Row | EC50 | SMILES
8 | < 1 nM | Fc1cc(Cl)ccc1COc1ccc(F)c(C2CCN(Cc3nc4cc(-c5nnc(C(F)(F)F)[nH]5)ncc4n3C[C@@H]3CCO3)CC2)n1 [Compound 47, 6-[(4-chloro-2-fluorophenyl)methoxy]-3-fluoro-2-{1-[(3-{[(2S)-oxetan-2-yl]methyl}-6-[5-(trifluoromethyl)-4H-1,2,4-triazol-3-yl]-3H-imidazo[4,5-c]pyridin-2-yl)methyl]piperidin-4-yl}pyridine]
9 | < 1 nM | Fc1cc(Cl)ccc1COc1nc(N2CCN(Cc3nc4cc(-c5nnc(C(F)(F)F)[nH]5)ncc4n3C[C@@H]3CCO3)CC2)c(F)cc1F [Compound 48, 1-{6-[(4-chloro-2-fluorophenyl)methoxy]-3,5-difluoropyridin-2-yl}-4-[(3-{[(2S)-oxetan-2-yl]methyl}-6-[5-(trifluoromethyl)-4H-1,2,4-triazol-3-yl]-3H-imidazo[4,5-c]pyridin-2-yl)methyl]piperazine]
10 | < 1 nM | Fc1cc(Cl)ccc1COc1nc(C2CCN(Cc3nc4cc(-c5nnc(C(F)(F)F)[nH]5)ncc4n3C[C@@H]3CCO3)CC2)c(F)cc1F [Compound 49, 2-[(4-chloro-2-fluorophenyl)methoxy]-3,5-difluoro-6-{1-[(3-{[(2S)-oxetan-2-yl]methyl}-6-[5-(trifluoromethyl)-4H-1,2,4-triazol-3-yl]-3H-imidazo[4,5-c]pyridin-2-yl)methyl]piperidin-4-yl}pyridine]
11 | < 1 nM | O=C1CN(Cc2nc3cc(-c4nnc(C(F)(F)F)[nH]4)ncc3n2C[C@@H]2CCO2)CCN1c1ccc(F)c(OCc2ccc(Cl)cc2F)c1 [Compound 51, 1-{3-[(4-chloro-2-fluorophenyl)methoxy]-4-fluorophenyl}-4-[(3-{[(2S)-oxetan-2-yl]methyl}-6-[5-(trifluoromethyl)-4H-1,2,4-triazol-3-yl]-3H-imidazo[4,5-c]pyridin-2-yl)methyl]piperazin-2-one]
12 | < 1 nM | O=C1CN(Cc2nc3cc(-c4nnc(C(F)(F)F)[nH]4)ncc3n2C[C@@H]2CCO2)CCN1c1ccc(F)c(OCc2ccc(Cl)cc2F)n1 [Compound 52, 1-{6-[(4-chloro-2-fluorophenyl)methoxy]-5-fluoropyridin-2-yl}-4-[(3-{[(2S)-oxetan-2-yl]methyl}-6-[5-(trifluoromethyl)-4H-1,2,4-triazol-3-yl]-3H-imidazo[4,5-c]pyridin-2-yl)methyl]piperazin-2-one]
13 | < 1 nM | O[C@@H]1CN(Cc2nc3cc(-c4nnc(C(F)(F)F)[nH]4)ncc3n2C[C@@H]2CCO2)CC[C@H]1c1cccc(OCc2ccc(Cl)cc2F)n1 [Compound 57, (3,4-trans)-4-{6-[(4-chloro-2-fluorophenyl)methoxy]pyridin-2-yl}-1-[(3-{[(2S)-oxetan-2-yl]methyl}-6-[5-(trifluoromethyl)-4H-1,2,4-triazol-3-yl]-3H-imidazo[4,5-c]pyridin-2-yl)methyl]piperidin-3-ol]
